Experimental data as given in ChEMBL document CHEMBL1949547, “Computer-assisted rational design, synthesis, and bioassay of non-steroidal anti-inflammatory agents” (2012).

Assays:
Assay type in all cases: functional
Settings in all cases: route intraperitoneal
[1] = tested on: Rattus norvegicus; test: Antiinflammatory activity in Wister albino rat assessed as inhibition of carrageenan-induced paw edema at 50 mg/kg, ip administered 1 hr before carrageenan challenge measured after 1 hr by plethysmometer relative to control
[2] = tested on: Rattus norvegicus; test: Antiinflammatory activity in Wister albino rat assessed as inhibition of carrageenan-induced paw edema at 50 mg/kg, ip administered 1 hr before carrageenan challenge measured after 2 hrs by plethysmometer relative to control
[3] = tested on: Rattus norvegicus; test: Antiinflammatory activity in Wister albino rat assessed as inhibition of carrageenan-induced paw edema at 50 mg/kg, ip administered 1 hr before carrageenan challenge measured after 3 hrs by plethysmometer relative to control
[4] = tested on: Rattus norvegicus; test: Antiinflammatory activity in Wister albino rat assessed as inhibition of carrageenan-induced paw edema at 50 mg/kg, ip administered 1 hr before carrageenan challenge measured after 4 hrs by plethysmometer relative to control
[5] = tested on: Rattus norvegicus; test: Antiinflammatory activity in Wister albino rat assessed as inhibition of carrageenan-induced paw edema at 50 mg/kg, ip administered 1 hr before carrageenan challenge measured after 24 hrs by plethysmometer relative to control
[6] = tested on: Rattus norvegicus; test: Antiinflammatory activity in Wister albino rat assessed as inhibition of carrageenan-induced paw edema at 50 mg/kg, ip administered 1 hr before carrageenan challenge measured after 4 hrs by plethysmometer relative to indomethacin
[7] = tested on: Rattus norvegicus; test: Antiinflammatory activity in Wister albino rat assessed as inhibition of carrageenan-induced paw edema at 10 mg/kg, ip administered 1 hr before carrageenan challenge measured after 1 hr by plethysmometer relative to control
[8] = tested on: Rattus norvegicus; test: Antiinflammatory activity in Wister albino rat assessed as inhibition of carrageenan-induced paw edema at 10 mg/kg, ip administered 1 hr before carrageenan challenge measured after 2 hrs by plethysmometer relative to control
[9] = tested on: Rattus norvegicus; test: Antiinflammatory activity in Wister albino rat assessed as inhibition of carrageenan-induced paw edema at 10 mg/kg, ip administered 1 hr before carrageenan challenge measured after 3 hrs by plethysmometer relative to control
[10] = tested on: Rattus norvegicus; test: Antiinflammatory activity in Wister albino rat assessed as inhibition of carrageenan-induced paw edema at 10 mg/kg, ip administered 1 hr before carrageenan challenge measured after 4 hrs by plethysmometer relative to control
[11] = tested on: Rattus norvegicus; test: Antiinflammatory activity in Wister albino rat assessed as inhibition of carrageenan-induced paw edema at 10 mg/kg, ip administered 1 hr before carrageenan challenge measured after 24 hrs by plethysmometer relative to control

SMILES: CCOC(=O)c1c(-c2ccc(Cl)cc2)cc(-c2ccccc2)nc1N1CCCCC1
- inhibition in vivo at 50 mg/kg [1]: 59.3%
- inhibition in vivo at 50 mg/kg [2]: 29.1%
- inhibition in vivo at 50 mg/kg [3]: 24%
- inhibition in vivo at 50 mg/kg [4]: 70.1%
- inhibition in vivo at 50 mg/kg [5]: 36.4%
- inhibition in vivo at 50 mg/kg [6]: 103%

SMILES: CCOC(=O)c1c(-c2ccc(Cl)c(Cl)c2)cc(-c2ccccc2)nc1N1CCCCC1
- inhibition in vivo at 50 mg/kg [1]: 53.5%
- inhibition in vivo at 50 mg/kg [2]: 67.9%
- inhibition in vivo at 50 mg/kg [3]: 46.3%
- inhibition in vivo at 50 mg/kg [4]: 64.7%
- inhibition in vivo at 50 mg/kg [5]: 48.9%
- inhibition in vivo at 50 mg/kg [6]: 95.1%

SMILES: CCOC(=O)c1c(-c2ccc(Cl)cc2)cc(-c2ccccc2)nc1N1CCOCC1
- inhibition in vivo at 50 mg/kg [1]: 59.5%
- inhibition in vivo at 50 mg/kg [2]: 54.5%
- inhibition in vivo at 50 mg/kg [3]: 69.8%
- inhibition in vivo at 50 mg/kg [4]: 81.3%
- inhibition in vivo at 50 mg/kg [5]: 61.7%
- inhibition in vivo at 50 mg/kg [6]: 120%

SMILES: CCOC(=O)c1c(-c2ccc(Cl)c(Cl)c2)cc(-c2ccccc2)nc1N1CCOCC1
- inhibition in vivo at 50 mg/kg [1]: 63.5%
- inhibition in vivo at 50 mg/kg [2]: 74.3%
- inhibition in vivo at 50 mg/kg [3]: 67.7%
- inhibition in vivo at 50 mg/kg [4]: 65.7%
- inhibition in vivo at 50 mg/kg [5]: 61.6%
- inhibition in vivo at 50 mg/kg [6]: 96.6%

SMILES: CCOC(=O)c1c(-c2ccc(Cl)cc2)cc(-c2ccccc2)nc1N1CCN(C)CC1
- inhibition in vivo at 50 mg/kg [1]: 65.8%
- inhibition in vivo at 50 mg/kg [2]: 39.6%
- inhibition in vivo at 50 mg/kg [3]: 67.8%
- inhibition in vivo at 50 mg/kg [4]: 37.8%
- inhibition in vivo at 50 mg/kg [5]: 53.2%
- inhibition in vivo at 50 mg/kg [6]: 55.6%

SMILES: CCOC(=O)c1c(-c2ccc(Cl)cc2)cc(-c2ccccc2)nc1Nc1ccccc1
- inhibition in vivo at 50 mg/kg [1]: 62.3%
- inhibition in vivo at 50 mg/kg [2]: 73.9%
- inhibition in vivo at 50 mg/kg [3]: 73.7%
- inhibition in vivo at 50 mg/kg [4]: 83.8%
- inhibition in vivo at 50 mg/kg [5]: 46.5%
- inhibition in vivo at 50 mg/kg [6]: 123%

SMILES: CCOC(=O)c1c(-c2ccc(Cl)cc2)cc(-c2ccccc2)nc1Nc1ccc(C)cc1
- inhibition in vivo at 50 mg/kg [1]: 69.5%
- inhibition in vivo at 50 mg/kg [2]: 32.6%
- inhibition in vivo at 50 mg/kg [3]: 82.4%
- inhibition in vivo at 50 mg/kg [4]: 61.8%
- inhibition in vivo at 50 mg/kg [5]: 62.7%
- inhibition in vivo at 50 mg/kg [6]: 90.9%

SMILES: CCOC(=O)c1c(-c2ccc(Cl)c(Cl)c2)cc(-c2ccccc2)nc1Nc1ccc(C)cc1
- inhibition in vivo at 50 mg/kg [1]: 59%
- inhibition in vivo at 50 mg/kg [2]: 62.1%
- inhibition in vivo at 50 mg/kg [3]: 59.3%
- inhibition in vivo at 50 mg/kg [4]: 59.8%
- inhibition in vivo at 50 mg/kg [5]: 40.8%
- inhibition in vivo at 50 mg/kg [6]: 87.9%

SMILES: CCOC(=O)c1c(-c2ccc(Cl)cc2)cc(-c2ccccc2)nc1Nc1ccc(OC)cc1
- inhibition in vivo at 50 mg/kg [1]: 33.3%
- inhibition in vivo at 50 mg/kg [2]: 61.1%
- inhibition in vivo at 50 mg/kg [3]: 68.8%
- inhibition in vivo at 50 mg/kg [4]: 38.9%
- inhibition in vivo at 50 mg/kg [5]: 39.6%
- inhibition in vivo at 50 mg/kg [6]: 57.2%

SMILES: CCOC(=O)c1c(-c2ccc(Cl)cc2)cc(-c2ccccc2)nc1Nc1ccc(Cl)cc1
- inhibition in vivo at 50 mg/kg [1]: 44.6%
- inhibition in vivo at 50 mg/kg [2]: 40.6%
- inhibition in vivo at 50 mg/kg [3]: 31.2%
- inhibition in vivo at 50 mg/kg [4]: 65.2%
- inhibition in vivo at 50 mg/kg [5]: 32.9%
- inhibition in vivo at 50 mg/kg [6]: 95.9%

SMILES: CCOC(=O)c1c(-c2ccc(Cl)c(Cl)c2)cc(-c2ccccc2)nc1Nc1ccc(Cl)cc1
- inhibition in vivo at 50 mg/kg [1]: 46.2%
- inhibition in vivo at 50 mg/kg [2]: 61.9%
- inhibition in vivo at 50 mg/kg [3]: 62.2%
- inhibition in vivo at 50 mg/kg [4]: 62.4%
- inhibition in vivo at 50 mg/kg [5]: 52.7%
- inhibition in vivo at 50 mg/kg [6]: 91.8%

SMILES: CCOC(=O)c1c(-c2ccc(F)cc2)cc(-c2ccccc2)nc1Nc1ccc(Cl)cc1
- inhibition in vivo at 50 mg/kg [4]: 78.4%

SMILES: CCOC(=O)c1c(-c2ccc(C)cc2)cc(-c2ccccc2)nc1Nc1ccc(OC)cc1
- inhibition in vivo at 50 mg/kg [4]: 89.4%

SMILES: CCOC(=O)c1c(-c2ccc(F)cc2)cc(-c2ccccc2)nc1N1CCCCC1
- inhibition in vivo at 50 mg/kg [4]: 76%

SMILES: CCOC(=O)c1c(-c2ccc(C)cc2)cc(-c2ccccc2)nc1N1CCCCC1
- inhibition in vivo at 50 mg/kg [4]: 78%

SMILES: CCOC(=O)c1c(-c2ccc(C)cc2)cc(-c2ccccc2)nc1N1CCOCC1
- inhibition in vivo at 50 mg/kg [4]: 73%

SMILES: CCOC(=O)c1c(-c2ccc(C)cc2)cc(-c2ccccc2)nc1Nc1ccc(Cl)cc1
- inhibition in vivo at 50 mg/kg [4]: 79.4%

SMILES: CCOC(=O)c1c(-c2ccc(F)cc2)cc(-c2ccccc2)nc1Nc1ccccc1
- inhibition in vivo at 50 mg/kg [4]: 76%

SMILES: CCOC(=O)c1c(-c2ccc(F)cc2)cc(-c2ccccc2)nc1N1CCOCC1
- inhibition in vivo at 50 mg/kg [4]: 72.7%

SMILES: N#Cc1c(-c2ccc(N3CCCCC3)cc2)c(C#N)c2n(Cc3ccccc3)c([S-])n[n+]2c1N
- inhibition in vivo at 50 mg/kg [4]: 67.4%

SMILES: N#Cc1c(-c2ccc(N3CCOCC3)cc2)c(C#N)c2n(Cc3ccccc3)c([S-])n[n+]2c1N
- inhibition in vivo at 50 mg/kg [4]: 39.3%

SMILES: CN1CCN(c2ccc(-c3c(C#N)c(N)[n+]4nc([S-])n(C)c4c3C#N)cc2)CC1
- inhibition in vivo at 50 mg/kg [4]: 36.6%

SMILES: C=CCn1c([S-])n[n+]2c(N)c(C#N)c(-c3ccc(N4CCOCC4)cc3)c(C#N)c12
- inhibition in vivo at 50 mg/kg [4]: 60.6%

SMILES: Cn1c([S-])n[n+]2c(N)c(C#N)c(-c3ccc(N4CCOCC4)cc3)c(C#N)c12
- inhibition in vivo at 50 mg/kg [4]: 45.4%

SMILES: Cn1c([S-])n[n+]2c(N)c(C#N)c(-c3ccc(N4CCCCC4)cc3)c(C#N)c12
- inhibition in vivo at 50 mg/kg [4]: 51.1%

SMILES: C=CCn1c([S-])n[n+]2c(N)c(C#N)c(-c3ccc(N4CCCCC4)cc3)c(C#N)c12
- inhibition in vivo at 50 mg/kg [4]: 68.5%

SMILES: COc1ccc2c(c1)c(CC(=O)O)c(C)n2C(=O)c1ccc(Cl)cc1 [INDOMETHACIN]
- inhibition in vivo at 10 mg/kg [7]: 62.8%
- inhibition in vivo at 10 mg/kg [8]: 59.9%
- inhibition in vivo at 10 mg/kg [9]: 64.8%
- inhibition in vivo at 10 mg/kg [10]: 68%
- inhibition in vivo at 10 mg/kg [11]: 76.9%
- inhibition in vivo at 50 mg/kg [6]: 100%
